According to ChEMBL document CHEMBL1201862, “PubChem BioAssay data set” (2004):
Calls of active or inactive are those of the source.

Key:
[1] = insulin promoter down-regulators in MIN6 cells, imaging, high-content screening, mouse beta cells (AID 1628); assay type: functional
[2] = cytotoxicity in MIN6 insulinoma cells, dose response, cytotoxicity control, cell-based, mouse insulinoma (AID 2122); assay type: functional;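 note: confirmatory high-throughput counterscreen run to flag cytotoxic compounds; mouse MIN-6 beta cells carrying an insulin promoter eGFP reporter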
[3] = tested on: HEK293; assay: inhibitors of LMP1-driven NF-kB reporter, dose response, cell-based, HEK293, luciferase, cherry-pick (AID 588343); assay type: functional; conditions: Homo sapiens
[4] = biological target: Cytochrome P450 3A4 (Homo sapiens, UniProt P08684);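 note: CYP3A4 tested as one member of a cytochrome P450 panel screen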
Cytochrome P450 3A4, sequence (P08684 whole entry): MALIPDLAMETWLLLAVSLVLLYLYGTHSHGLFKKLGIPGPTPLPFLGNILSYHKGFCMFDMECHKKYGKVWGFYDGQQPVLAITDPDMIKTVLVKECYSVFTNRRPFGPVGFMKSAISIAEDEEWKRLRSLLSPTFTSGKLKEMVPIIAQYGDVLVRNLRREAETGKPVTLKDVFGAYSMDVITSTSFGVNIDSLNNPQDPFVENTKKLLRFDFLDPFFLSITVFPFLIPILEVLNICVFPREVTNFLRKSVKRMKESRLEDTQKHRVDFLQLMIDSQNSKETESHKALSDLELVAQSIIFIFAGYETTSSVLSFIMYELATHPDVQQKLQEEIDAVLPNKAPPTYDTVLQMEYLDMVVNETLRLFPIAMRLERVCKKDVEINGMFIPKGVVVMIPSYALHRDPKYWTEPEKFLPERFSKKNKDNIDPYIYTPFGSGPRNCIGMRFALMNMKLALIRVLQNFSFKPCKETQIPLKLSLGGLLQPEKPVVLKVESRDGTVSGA

[5] = biological target: Cytochrome P450 2D6 (Homo sapiens, UniProt P10635);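 note: CYP2D6 member of a cytochrome P450 panel assay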
Cytochrome P450 2D6, sequence (P10635 whole entry): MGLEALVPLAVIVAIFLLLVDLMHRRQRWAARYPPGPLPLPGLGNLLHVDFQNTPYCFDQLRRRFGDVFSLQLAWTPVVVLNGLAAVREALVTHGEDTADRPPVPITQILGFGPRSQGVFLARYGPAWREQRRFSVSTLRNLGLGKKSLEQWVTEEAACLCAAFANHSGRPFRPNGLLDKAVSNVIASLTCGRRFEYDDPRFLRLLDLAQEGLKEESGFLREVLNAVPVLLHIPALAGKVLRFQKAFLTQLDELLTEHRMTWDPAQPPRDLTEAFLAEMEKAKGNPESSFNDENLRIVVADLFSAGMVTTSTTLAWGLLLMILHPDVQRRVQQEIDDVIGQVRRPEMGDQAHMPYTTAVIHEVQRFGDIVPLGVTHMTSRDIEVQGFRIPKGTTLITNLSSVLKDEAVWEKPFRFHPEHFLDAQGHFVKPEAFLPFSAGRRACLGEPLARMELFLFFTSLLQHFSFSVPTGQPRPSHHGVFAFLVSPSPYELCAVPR

[6] = biological target: Cytochrome P450 2C9 (Homo sapiens, UniProt P11712)
Cytochrome P450 2C9, sequence (P11712 whole entry): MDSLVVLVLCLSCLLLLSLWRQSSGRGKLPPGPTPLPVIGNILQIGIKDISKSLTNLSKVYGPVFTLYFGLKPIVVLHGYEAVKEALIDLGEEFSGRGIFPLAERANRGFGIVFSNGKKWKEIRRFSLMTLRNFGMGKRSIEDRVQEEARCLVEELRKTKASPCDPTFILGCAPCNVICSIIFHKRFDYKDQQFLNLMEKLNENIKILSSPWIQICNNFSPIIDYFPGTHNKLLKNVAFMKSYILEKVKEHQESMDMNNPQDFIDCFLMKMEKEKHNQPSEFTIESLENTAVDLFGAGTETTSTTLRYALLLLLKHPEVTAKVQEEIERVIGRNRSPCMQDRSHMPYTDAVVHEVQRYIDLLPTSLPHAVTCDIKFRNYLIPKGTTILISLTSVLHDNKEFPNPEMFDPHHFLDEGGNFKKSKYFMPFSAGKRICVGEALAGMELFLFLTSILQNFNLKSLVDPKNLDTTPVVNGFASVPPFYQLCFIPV

[7] = NIH-3T3 fibroblast cytotoxicity, dose response, cytotoxicity control, cell-based, fluorescence, Alamar Blue, secondary assay (AID 2327); assay type: functional;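 note: NIH-3T3 mouse fibroblasts cultured with fluconazole at 8 µg/mL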
[8] = C. albicans growth with fluconazole, confirmation, fluorescence, retest (AID 2467); assay type: functional, cell-based
[9] = tested on: Vero; assay: cells; assay type: functional; conditions: Chlorocebus sabaeus
[10] = biological target: T1, High affinity choline transporter 1 (Homo sapiens, UniProt Q9GZV3); assay: CHT inhibitors, dose response, cell-based, 5-point CRC, membrane potential dye (AID 504840); assay type: functional
T1 sequence (Q9GZV3 whole entry): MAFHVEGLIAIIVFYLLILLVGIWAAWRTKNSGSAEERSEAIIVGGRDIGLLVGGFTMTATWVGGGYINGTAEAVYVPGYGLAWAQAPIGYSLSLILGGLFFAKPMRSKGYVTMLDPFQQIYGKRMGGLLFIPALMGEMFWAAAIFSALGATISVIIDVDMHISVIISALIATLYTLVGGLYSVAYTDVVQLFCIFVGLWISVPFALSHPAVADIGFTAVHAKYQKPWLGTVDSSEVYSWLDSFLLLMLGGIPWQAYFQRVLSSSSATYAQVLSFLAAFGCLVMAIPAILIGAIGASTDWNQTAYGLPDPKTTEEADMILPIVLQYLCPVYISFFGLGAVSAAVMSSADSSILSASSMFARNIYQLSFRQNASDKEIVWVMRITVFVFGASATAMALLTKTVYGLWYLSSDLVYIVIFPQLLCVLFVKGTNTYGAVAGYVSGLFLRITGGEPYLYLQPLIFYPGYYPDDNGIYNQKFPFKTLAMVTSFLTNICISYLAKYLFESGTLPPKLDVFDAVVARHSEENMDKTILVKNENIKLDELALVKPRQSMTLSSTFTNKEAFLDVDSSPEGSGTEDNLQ

[11] = tested on: Vero; assay: cells; assay type: functional, cell-based; conditions: Chlorocebus sabaeus
[12] = biological target: T2, Short transient receptor potential channel 4 (Mus musculus, UniProt Q9QUQ5); assay: mouse TRPC4 channel activators, dose response, cell-based, HEK293 TRPC4/mu-opioid, Fluo-4 calcium (AID 434937); assay type: functional
T2 sequence (Q9QUQ5 whole entry): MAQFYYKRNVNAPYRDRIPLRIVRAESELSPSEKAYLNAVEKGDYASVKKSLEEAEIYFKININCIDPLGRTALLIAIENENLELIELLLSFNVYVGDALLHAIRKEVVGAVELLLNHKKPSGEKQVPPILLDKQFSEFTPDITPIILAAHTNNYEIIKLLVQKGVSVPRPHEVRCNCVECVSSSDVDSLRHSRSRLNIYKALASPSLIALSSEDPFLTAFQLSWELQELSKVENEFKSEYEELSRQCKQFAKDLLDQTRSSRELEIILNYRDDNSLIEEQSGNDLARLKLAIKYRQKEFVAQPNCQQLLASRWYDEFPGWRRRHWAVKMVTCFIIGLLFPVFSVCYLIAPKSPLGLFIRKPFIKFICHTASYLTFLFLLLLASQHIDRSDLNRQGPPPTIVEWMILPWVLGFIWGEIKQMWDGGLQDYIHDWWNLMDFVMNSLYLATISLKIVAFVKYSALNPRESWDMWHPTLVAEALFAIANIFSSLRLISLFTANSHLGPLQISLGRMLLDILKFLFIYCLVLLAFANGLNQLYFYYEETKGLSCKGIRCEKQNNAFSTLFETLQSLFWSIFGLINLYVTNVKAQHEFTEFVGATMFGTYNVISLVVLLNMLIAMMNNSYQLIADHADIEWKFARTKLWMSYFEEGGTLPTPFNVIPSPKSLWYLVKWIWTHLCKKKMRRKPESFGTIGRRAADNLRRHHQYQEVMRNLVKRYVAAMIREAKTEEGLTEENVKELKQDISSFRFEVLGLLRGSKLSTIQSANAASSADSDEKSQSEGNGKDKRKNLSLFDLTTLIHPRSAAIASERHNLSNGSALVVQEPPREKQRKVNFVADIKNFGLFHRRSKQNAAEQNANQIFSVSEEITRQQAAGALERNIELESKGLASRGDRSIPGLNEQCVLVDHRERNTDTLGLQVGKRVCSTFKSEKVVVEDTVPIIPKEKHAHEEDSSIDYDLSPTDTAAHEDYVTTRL

[13] = biological target: Heat shock protein HSP 90-alpha (Homo sapiens, UniProt P07900); assay type: functional, organism-based
[14] = biological target: T3, Leucine aminopeptidase (Plasmodium falciparum 3D7, UniProt Q8IL11); assay: P. falciparum M17LAP inhibitors, primary screen, biochemical, fluorogenic H-Leu-NHMec substrate, 1536-well (AID 1619); assay type: functional
T3 sequence (Q8IL11 whole entry): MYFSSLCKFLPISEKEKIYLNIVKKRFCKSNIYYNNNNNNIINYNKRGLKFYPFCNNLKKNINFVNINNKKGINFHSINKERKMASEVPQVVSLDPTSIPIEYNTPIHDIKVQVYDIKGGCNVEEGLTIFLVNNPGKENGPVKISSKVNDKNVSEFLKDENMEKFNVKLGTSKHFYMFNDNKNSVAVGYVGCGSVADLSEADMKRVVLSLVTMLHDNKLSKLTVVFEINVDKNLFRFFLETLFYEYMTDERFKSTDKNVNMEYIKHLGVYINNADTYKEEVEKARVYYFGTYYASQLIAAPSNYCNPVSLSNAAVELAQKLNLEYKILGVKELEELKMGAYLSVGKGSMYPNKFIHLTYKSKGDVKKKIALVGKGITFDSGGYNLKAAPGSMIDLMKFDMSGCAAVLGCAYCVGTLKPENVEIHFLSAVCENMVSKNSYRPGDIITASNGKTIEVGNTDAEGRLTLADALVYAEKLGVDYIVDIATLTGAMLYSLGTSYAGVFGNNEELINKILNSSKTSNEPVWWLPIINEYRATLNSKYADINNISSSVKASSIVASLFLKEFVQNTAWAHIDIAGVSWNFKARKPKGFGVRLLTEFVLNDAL

With COc1ccc2[nH]c3c(N4CCN(Cc5ccc6c(c5)OCO6)CC4)ncnc3c2c1 the IC50 [1] was 2.79 µM (active) and the IC50 [2] was 2.58 µM (active).
In the case of c1ccc(CCCN2CCN(CCOC(c3ccccc3)c3ccccc3)CC2)cc1, the AC50 [3] is reported as 23.8 µM (active).
With COc1ccc(C2=NOC(C(=O)N3CCCc4ccccc43)C2)cc1 (stereo unspecified) the AC50 [4] was 12.6 µM (inconclusive), the AC50 [5] was 20 µM (inconclusive) and the AC50 [6] was “inconclusive”.
For COCCCNC(=O)C1CCN(S(=O)(=O)N(CC(C)C)CC(C)C)CC1, the AC50 [4] was 22.4 µM (inconclusive) and the AC50 [6] was “inconclusive”.
In the case of Cc1cccc(C(=O)NC(=S)NNC(=O)Cc2ccccc2)c1, the EC50 [7] is reported as > 150 µM (inactive), the EC50 [8] is reported as 1.14 µM (active) and the CC50 [9] is reported as > 25 µM (active). The IC50 [10] was 13.2 µM (active), the IC50 [11] was 22.7 µM (active) and the EC50 [12] was 4.22 µM (active). The AC50 [13] was 4.66 µM (active) and the IC50 [14] was 56.6 µM (active).
